pKi: −log10 of the molar value. Positions of bridges follow the written chain, without caps; N, C: chain ends. Non-standard residues stand in square brackets, D forms with d. Residues, ends and D or L forms follow the SMILES beside them. dPen = CC(C)(S)[C@@H](N)C(=O)O
Key:
ER alpha = target: T1, ER alpha (Homo sapiens, UniProt P03372); assay: competition binding assay against a model linear peptide sequence (estrogen receptor-coactivator interaction), ER alpha; conditions: competition binding assay (Lilly Research Labs); read-out: Ki ER α
T1 sequence (P03372 1-595): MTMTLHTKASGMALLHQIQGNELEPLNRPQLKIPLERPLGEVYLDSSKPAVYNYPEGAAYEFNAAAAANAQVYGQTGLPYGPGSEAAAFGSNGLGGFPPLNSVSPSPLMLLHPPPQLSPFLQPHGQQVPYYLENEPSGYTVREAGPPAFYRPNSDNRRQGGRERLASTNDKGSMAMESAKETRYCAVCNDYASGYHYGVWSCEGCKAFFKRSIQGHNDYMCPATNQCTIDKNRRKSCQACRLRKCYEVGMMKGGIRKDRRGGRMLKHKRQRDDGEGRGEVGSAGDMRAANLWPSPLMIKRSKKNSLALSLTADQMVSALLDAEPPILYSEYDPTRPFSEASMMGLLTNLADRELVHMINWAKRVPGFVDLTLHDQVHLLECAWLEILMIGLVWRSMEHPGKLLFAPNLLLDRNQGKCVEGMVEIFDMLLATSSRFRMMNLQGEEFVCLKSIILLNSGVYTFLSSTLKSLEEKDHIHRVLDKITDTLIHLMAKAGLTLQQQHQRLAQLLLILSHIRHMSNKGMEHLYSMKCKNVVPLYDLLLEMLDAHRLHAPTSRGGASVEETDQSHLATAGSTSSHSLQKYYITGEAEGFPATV
Description: (§1) The synthetic helicormimetic peptides designed as antagonists of the estrogen receptor-coactivator interactions were tested in a competition binding assay (Lilly Research Labs) against a model linear peptide sequence. Activities are reported in the Table below in Ki values, with two of the best analogs labeled as PERM-1 and PERM-2, or Peptidomimetic Estrogen Receptor Modulators.

ER beta = ER beta (Homo sapiens, UniProt Q92731); assay: competition binding assay against a model linear peptide sequence (estrogen receptor-coactivator interaction), ER beta; conditions: competition binding assay (Lilly Research Labs); read-out: Ki ER β
Description: as §1

estrogen receptors = assay: inhibition of the binding of the estrogen receptors to the helical segment of coactivator proteins; conditions: result in words
Description: as §1

Chain of ER beta (Q92731 whole entry): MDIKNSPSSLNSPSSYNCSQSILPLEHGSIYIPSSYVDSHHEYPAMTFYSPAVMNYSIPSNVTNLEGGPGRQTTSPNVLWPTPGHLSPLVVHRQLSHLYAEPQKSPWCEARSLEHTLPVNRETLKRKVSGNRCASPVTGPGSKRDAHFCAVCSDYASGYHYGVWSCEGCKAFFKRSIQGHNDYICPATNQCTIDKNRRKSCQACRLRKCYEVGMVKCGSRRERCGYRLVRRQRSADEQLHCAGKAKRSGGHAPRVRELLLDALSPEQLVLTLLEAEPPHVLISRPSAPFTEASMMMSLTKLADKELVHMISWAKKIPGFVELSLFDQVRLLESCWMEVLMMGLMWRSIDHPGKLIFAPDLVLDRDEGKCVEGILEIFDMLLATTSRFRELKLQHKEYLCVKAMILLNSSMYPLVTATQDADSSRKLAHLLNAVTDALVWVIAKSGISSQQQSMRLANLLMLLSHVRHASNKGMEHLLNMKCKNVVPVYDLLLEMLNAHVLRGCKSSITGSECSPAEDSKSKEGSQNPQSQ

| Compound | pKi (ER alpha) | pKi (ER beta) | inhibitory activity on binding of estrogen receptors to helical segment of coactivator proteins (estrogen receptors) |
| --- | --- | --- | --- |
| CC[C@H](C)[C@@H]1NC(=O)[C@H](NC(=O)[C@H](N)CCCCN)CSSC[C@@H](C(=O)N[C@@H](CCCNC(=N)N)C(=O)N[C@@H](CC(C)C)C(=O)N[C@@H](CC(C)C)C(=O)N[C@@H](CCC(N)=O)C(N)=O)NC(=O)[C@H](CC(C)C)NC1=O [AKG-I-28, H-D-Lys-cyclo (D-Cys-Ile-Leu-Cys)-Arg-Leu-Leu-Gln-NH2] (H-[dK][dC]ILCRLLQ-NH2; disulfide 2-5) | 6.66 | 5.72 |  |
| CC[C@H](C)[C@@H]1NC(=O)[C@H](NC(=O)[C@@H](N)CCCNC(=N)N)CSSC[C@@H](C(=O)N[C@@H](CCCNC(=N)N)C(=O)N[C@@H](CC(C)C)C(=O)N[C@@H](CC(C)C)C(=O)N[C@@H](CCC(N)=O)C(N)=O)NC(=O)[C@H](CC(C)C)NC1=O [AKG-I-50, H-Arg-cyclo(D-Cys-Ile-Leu-Cys)-Arg-Leu-Leu-Gln-NH2] (H-R[dC]ILCRLLQ-NH2; disulfide 2-5) | 7.96 | 7.11 |  |
| Leu-Asn-Gln-Leu-Leu (LNQLL; printed: Leu-Asn-Gln-Leu-Leu) |  |  | do not display any inhibitory activity |

The remaining compounds from weak to strong by pKi (ER alpha), led by results:

| pKi (ER alpha) | pKi (ER beta) | inhibitory activity on binding of estrogen receptors to helical segment of coactivator proteins (estrogen receptors) | Compound |
| --- | --- | --- | --- |
| 6.03 | 5.41 |  | CC[C@H](C)[C@@H]1NC(=O)[C@H](NC(=O)[C@@H](N)CCCCN)CSSC[C@H](C(=O)N[C@@H](CCCNC(=N)N)C(=O)N[C@@H](CC(C)C)C(=O)N[C@@H](CC(C)C)C(=O)N[C@@H](CCC(N)=O)C(N)=O)NC(=O)[C@H](CC(C)C)NC1=O [AKG-I-61, H-Lys-cyclo(D-Cys-Ile-Leu-D-Cys)-Arg-Leu-Leu-Gln-NH2] (H-K[dC]IL[dC]RLLQ-NH2; disulfide 2-5) |
| 6.77 | 6.03 |  | CC[C@H](C)[C@@H]1NC(=O)[C@H](NC(=O)[C@@H](N)CCCNC(=N)N)C(C)(C)SSC[C@@H](C(=O)N[C@@H](CCCNC(=N)N)C(=O)N[C@@H](CC(C)C)C(=O)N[C@@H](CC(C)C)C(=O)N[C@@H](CCC(N)=O)C(N)=O)NC(=O)[C@H](CC(C)C)NC1=O [AKG-II-9, H-Arg-cyclo (D-Pen-Ile-Leu-Cys)-Arg-Leu-Leu-Gln-NH2] (H-R[dPen]ILCRLLQ-NH2; disulfide 2-5) |

Reference: patent publication US20050054770A1, “Helicomimetics and stabilized lxxll peptidomimetics” (priority 2001, published 2005)
